Source: patent US4925844A, “Antagonizing the pharmacological effects of a benzodiazepine receptor agonist” (ICI Americas Inc., priority 1989, dated 1990)

Legend:
benzodiazepine receptors [1] = conditions: general statement on how activity is indicated in the test; cited from earlier work
rats [2] = test: Anti-conflict activity / shock-induced suppression of drinking (SSD) test; assay type: in vivo; conditions: for anticonflict activity (increase in mean number of shocks taken vs vehicle controls): substance given alone; for antagonism of the anticonflict or disinhibiting activity (increase in shocks taken) of benzodiazepine agonists: oral or i.p., 0.2 to 50 mg per kg, 30 to 45 minutes before the benzodiazepine agonist
Method: A modification of the method of Vogel and coworkers (1971) is used. […] In this test, benzodiazepine agonists (e.g. chlordiazepoxide) are administered either intraperitoneally (i.p.) or orally (p.o.) at 30 or 60 min., respectively, prior to the initiation of the test. […]
The mean number of shocks taken for the groups that received the test agents (benzodiazepine agonists) alone and in the presence of benzodiazepine antagonist are recorded.

rats [3] = test: Neuromuscular impairment / roto-rod test; conditions: for neuromuscular uncoordination (ataxia) on the roto-rod: benzodiazepine agonist alone; for antagonism of diazepam-induced neuromuscular impairment on the roto-rod: oral or intraperitoneal, 30 to 45 minutes before the benzodiazepine agonist
Method: Further tests may be conducted to evaluate the agonist/antagonist profile of a compound. The procedures or methods used to determine anticonflict (shock-induced suppressions of drinking test), antagonism of metrazole-induced convulsions and neuromuscular impairment (roto-rod studies) are published in Eur. J. Pharmacol. 78(3):323-333 (1980) and briefly discussed below. To determine the antagonist properties of a test compound, subjects are treated with test agent intraperitoneally or orally at selected intervals prior to or following treatment with a benzodiazepine agonist, and are then tested under the appropriate test conditions.
A roto-rod test (Rinnard and Car, J. Pharmacol. and Exp. Therap. 121:354 (1957)) which measures the rat's muscle tone and ability to perform coordinated locomotor tasks may be used to evaluate a test compound's antagonist properties. In the roto-rod test, rats are trained to maintain themselves for at least 1 min on a rotating rod (6 r.p.m.). Subjects are treated with a test compound and are retested for their ability to maintain themselves on the roto-rod at 30 and 60 min. post-drug administration. Subjects that fail to stay on the rod for a one-minute period are considered to be neuromuscularly impaired (ataxia) and the ED50 (that dose which would be expected to produce ataxia in 50% of the rats tested) is calculated. […] The benzodiazepine antagonists may also be administered immediately prior to, or immediately after, the benzodiazepine agonist in this test.

[4] = tested on: metrazole-induced convulsions; test: Antagonism of metrazole-induced convulsions (anticonvulsant activity); assay type: in vivo; conditions: substance given alone
Method: Further tests may be conducted to evaluate the agonist/antagonist profile of a compound. […] To determine the antagonist properties of a test compound, subjects are treated with test agent intraperitoneally or orally at selected intervals prior to or following treatment with a benzodiazepine agonist, and are then tested under the appropriate test conditions.

male Wistar rats = test: Overt toxicity after intraperitoneal dosing; assay type: in vivo
Source text: In general, the compound 4-amino-8-phenyl-N-propyl-3-cinnolinecarboxamide is believed to be able to antagonize the effects of benzodiazepine receptor agonists and will be useful whenever such antagonism is desired.

benzodiazepine receptors [5] = test: [3H]-flunitrazepam binding test (FNB test); conditions: at a tested concentration of 500 nanomolar or less; rat cerebral cortex P2 membranes

Compound	effect on flunitrazepam binding (displacement or enhancement) (benzodiazepine receptors [1])	anticonflict activity (increase in mean number of shocks taken vs vehicle controls) (rats [2])	neuromuscular uncoordination (ataxia) on the roto-rod (rats [3])	antagonism of the anticonflict or disinhibiting activity (increase in shocks taken) of benzodiazepine agonists (rats [2])	antagonism of diazepam-induced neuromuscular impairment on the roto-rod (rats [3])	also measured
CCCCNc1c(C(=O)OCC)cnc2c1cnn2CC [cartazolate]	enhancement of the binding	–	–	–	–	–
CNC1=Nc2ccc(Cl)cc2C(c2ccccc2)=[N+]([O-])C1 [chlordiazepoxide]	–	significant (P<0.05) anticonflict activity	produce neuromuscular uncoordination (ataxia) at relatively low doses	–	–	mean number of shocks taken as compared to vehicle controls (rats [2]; rats, oral dose of 18 mg per kg chlordiazepoxide alone): significant increases
CCOC(=O)c1ncn2c1CN(C)C(=O)c1cc(F)ccc1-2 [ethyl 8-fluoro-5,6-dihydro-5-methyl-6-oxo-4H-imidazo(1,5a)(1,4)benzodiazepine-3-carboxylate]	–	–	–	antagonized	antagonized	–
CN1C(=O)CN=C(c2ccccc2)c2cc(Cl)ccc21 [diazepam]	–	significant (P<0.05) anticonflict activity	produce neuromuscular uncoordination (ataxia) at relatively low doses	–	–	–
CCCCNc1c(C(=O)OCC)c(C)nc2c1cnn2CC [tracazolate]	enhancement of the binding	–	–	–	–	–
CCCNC(=O)c1nnc2c(-c3ccccc3)cccc2c1N [formula Ia, 4-amino-8-phenyl-N-propyl-3-cinnolinecarboxamide]	–	does not exhibit	–	antagonized	antagonized	anticonvulsant activity typical of benzodiazepine agonists [4]: does not exhibit; toxicological problems (male Wistar rats; at several multiples of a therapeutic dose): has not exhibited toxicological problems; overt toxic effects (male Wistar rats; male Wistar rats, intraperitoneal dose of 50 mg per kg): no overt toxic effects; mean number of shocks taken (reversal of chlordiazepoxide effect) (rats [2]; rats, oral 1.25 mg per kg five minutes prior to 18 mg per kg oral chlordiazepoxide): did not exhibit a significant increase; displacement of specific [3H]-flunitrazepam binding (benzodiazepine receptors [5]): ≥ 50%; neuromuscular impairment (reversal of diazepam effect; ability to remain on the roto-rod) (rats [3]; rats, intraperitoneal 1.25 mg per kg five minutes after 20 mg per kg intraperitoneal diazepam): did not exhibit significant neuromuscular impairment
